Reference: the NIST ThermoML archive (doi:10.1016/j.jct.2018.03.007)
Numbers after ± are expanded uncertainties.

How the values were obtained:
[1] = xn = mol fraction of the nth substance listed; conditions: 100 kPa, Liquid, x2 = 0; for speed of sound: Linear variable-path acoustic interferometer; for mass density: Vibrating tube method
[2] = 100 kPa, Liquid; for speed of sound: Linear variable-path acoustic interferometer; for mass density: Vibrating tube method

Structure (SMILES)	mass density ([1]; 298.15 K)	mass density ([1]; 303.15 K)	mass density ([1]; 308.15 K)	mass density ([1]; 313.15 K)	speed of sound ([2]; 298.15 K, Frequency=2 MHz)	mass density ([2]; 298.15 K)	speed of sound ([2]; 303.15 K, Frequency=2 MHz)	mass density ([2]; 303.15 K)	speed of sound ([2]; 308.15 K, Frequency=2 MHz)	mass density ([2]; 308.15 K)	speed of sound ([2]; 313.15 K, Frequency=2 MHz)	mass density ([2]; 313.15 K)	also measured
CCO [ethanol] + CCn1cc[n+](C)c1.O=S(=O)([O-])O	785.26 ± 2 kg/m3	780.98 ± 2 kg/m3	776.66 ± 2 kg/m3	772.28 ± 2 kg/m3	–	–	–	–	–	–	–	–	speed of sound ([1]; 298.15 K, Frequency=3 MHz): 1142.7 ± 1.5 m/s; speed of sound ([1]; 303.15 K, Frequency=3 MHz): 1125.3 ± 1.5 m/s; speed of sound ([1]; 308.15 K, Frequency=3 MHz): 1108.8 ± 1.5 m/s; speed of sound ([1]; 313.15 K, Frequency=3 MHz): 1091.5 ± 1.5 m/s
CCCO [propan-1-ol] + CCn1cc[n+](C)c1.O=S(=O)([O-])O	799.96 ± 2 kg/m3	795.92 ± 2 kg/m3	791.82 ± 2 kg/m3	787.73 ± 2 kg/m3	–	–	–	–	–	–	–	–	speed of sound ([1]; 298.15 K, Frequency=2 MHz): 1206.1 ± 1.6 m/s; speed of sound ([1]; 303.15 K, Frequency=2 MHz): 1189.1 ± 1.6 m/s; speed of sound ([1]; 308.15 K, Frequency=2 MHz): 1172.2 ± 1.6 m/s; speed of sound ([1]; 313.15 K, Frequency=2 MHz): 1155.4 ± 1.6 m/s
CCCO [propan-1-ol]	–	–	–	–	1206.1 ± 1.6 m/s	799.96 ± 2 kg/m3	1189.1 ± 1.6 m/s	795.92 ± 2 kg/m3	1172.2 ± 1.6 m/s	791.82 ± 2 kg/m3	1155.4 ± 1.6 m/s	787.73 ± 2 kg/m3	–
CCO [ethanol]	–	–	–	–	–	785.26 ± 2 kg/m3	–	780.98 ± 2 kg/m3	–	776.66 ± 2 kg/m3	–	772.28 ± 2 kg/m3	speed of sound ([2]; 298.15 K, Frequency=3 MHz): 1142.7 ± 1.5 m/s; speed of sound ([2]; 303.15 K, Frequency=3 MHz): 1125.3 ± 1.5 m/s; speed of sound ([2]; 308.15 K, Frequency=3 MHz): 1108.8 ± 1.5 m/s; speed of sound ([2]; 313.15 K, Frequency=3 MHz): 1091.5 ± 1.5 m/s
C[S+](C)[O-] [dimethyl sulfoxide]	–	–	–	–	1485 ± 1.7 m/s	1095.33 ± 2 kg/m3	1468.3 ± 1.7 m/s	1090.32 ± 2 kg/m3	1451.1 ± 1.7 m/s	1085.31 ± 2 kg/m3	1434.2 ± 1.7 m/s	1080.29 ± 2 kg/m3	–
CCn1cc[n+](C)c1.O=S(=O)([O-])O [1-ethyl-3-methylimidazolium hydrogen sulfate]	–	–	–	–	1982.8 ± 2.8 m/s	1365.75 ± 2.5 kg/m3	1962.9 ± 2.8 m/s	1362.62 ± 2.5 kg/m3	1943.1 ± 2.8 m/s	1359.53 ± 2.5 kg/m3	1923.2 ± 2.8 m/s	1356.41 ± 2.5 kg/m3	–
C[S+](C)[O-] [dimethyl sulfoxide] + CCn1cc[n+](C)c1.O=S(=O)([O-])O	1095.33 ± 2 kg/m3	1090.32 ± 2 kg/m3	1085.31 ± 2 kg/m3	1080.29 ± 2 kg/m3	–	–	–	–	–	–	–	–	speed of sound ([1]; 298.15 K, Frequency=2 MHz): 1485 ± 1.7 m/s; speed of sound ([1]; 303.15 K, Frequency=2 MHz): 1468.3 ± 1.7 m/s; speed of sound ([1]; 308.15 K, Frequency=2 MHz): 1451.1 ± 1.7 m/s; speed of sound ([1]; 313.15 K, Frequency=2 MHz): 1434.2 ± 1.7 m/s
